The values that follow come from ChEMBL document CHEMBL1201862, “PubChem BioAssay data set” (2004).

Calls of active or inactive are those of the source. Rule as the data show it, for most assays here: actives have a measured EC50 and inactives only a lower limit.

Assay [1] relates to Streptococcus sp. 'group A'. Kind of assay: Streptococcus pyogenes SK(-)GAS viability under kanamycin – luminescence, BacTiterGlo, confirmation, counter-screen for streptokinase expression inhibitor project, dose response (AID 1900). Format: functional, organism-based. A general note: The purpose of a counterscreen is to sort out artefacts and off-target activity.
For another assay, the target named is T1, Streptokinase A (Streptococcus pyogenes serotype M1, UniProt P10520).
T1 sequence (P10520 whole entry): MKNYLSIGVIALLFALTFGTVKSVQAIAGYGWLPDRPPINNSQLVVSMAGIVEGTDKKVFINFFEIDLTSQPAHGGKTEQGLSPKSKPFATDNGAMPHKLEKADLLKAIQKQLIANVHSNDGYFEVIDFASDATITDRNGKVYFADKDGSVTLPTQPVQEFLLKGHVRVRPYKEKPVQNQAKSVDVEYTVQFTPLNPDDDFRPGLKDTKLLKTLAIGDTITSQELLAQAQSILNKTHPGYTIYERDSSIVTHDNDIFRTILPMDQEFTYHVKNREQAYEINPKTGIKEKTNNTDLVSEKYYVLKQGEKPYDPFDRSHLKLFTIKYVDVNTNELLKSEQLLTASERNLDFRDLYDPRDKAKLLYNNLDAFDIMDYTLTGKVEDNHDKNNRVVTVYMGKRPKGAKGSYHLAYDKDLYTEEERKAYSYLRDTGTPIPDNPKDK
The experiment in a line: viability-normalized secreted streptokinase activity reduction – plasminogen activation absorbance, OD405, dose response (AID 1914).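 Also: secreted streptokinase activity via plasminogen activation per viability signal from cell pellet.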 The class given is functional, Streptococcus pyogenes M1 GAS.

The subject of the next assay is Streptococcus. The experiment in a line: GAS UMAA2166 growth inhibition – luminescence, BacTiterGlo, counter-screen for streptokinase expression inhibitor project, dose response (AID 1915).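 Also: potency for reduction of bacterial viability or growth.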 The class given is functional, organism-based.
Assay [2] can be described thus: Trypanosoma cruzi growth suppression in host cells – NIH3T3 host cells, beta-gal luminescence, confirmation (AID 2044).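 Also: intracellular parasites grown in NIH/3T3 mouse fibroblasts as host cells; luminescent beta-galactosidase reporter signal from transgenic T. cruzi replicating inside host cells; inhibitors lower the luminescence signal.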 The class given is functional, cell-based.
Assay [3] in a line: NIH3T3 cell viability loss – ATP luminescence, mouse fibroblasts, counter-screen, dose response (AID 2010).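 Also: cells exposed to compound for about 90 hours before reading.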 The class given is functional, cell-based.
Assay [4] can be described thus: Luminescence Cell-Based Dose Response HTS to Identify Activators of Luciferase Translation or Activity in H4 […] Cells. [Related pubchem assays: 1829 (Project Summary), 1814 (Primary HTS)]. Format: functional.
The test system of another assay is H4. Kind of assay: Luminescence Cell-Based Dose Response HTS to Identify Activators of 5'UTR Stem-Loop Driven Prion Protein mRNA Translation in H4 Neuroglioblastoma Cells. [Related pubchem assays: 1829 (Project Summary), 1814 (Primary HTS)]. The class given is functional. The note with it: Homo sapiens.
For another assay, the target named is T2, Cytochrome P450 1A2 (Homo sapiens, UniProt P05177).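 Also: PubChem cytochrome P450 panel assay, CYP1A2 panel member.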
T2 sequence (P05177 whole entry): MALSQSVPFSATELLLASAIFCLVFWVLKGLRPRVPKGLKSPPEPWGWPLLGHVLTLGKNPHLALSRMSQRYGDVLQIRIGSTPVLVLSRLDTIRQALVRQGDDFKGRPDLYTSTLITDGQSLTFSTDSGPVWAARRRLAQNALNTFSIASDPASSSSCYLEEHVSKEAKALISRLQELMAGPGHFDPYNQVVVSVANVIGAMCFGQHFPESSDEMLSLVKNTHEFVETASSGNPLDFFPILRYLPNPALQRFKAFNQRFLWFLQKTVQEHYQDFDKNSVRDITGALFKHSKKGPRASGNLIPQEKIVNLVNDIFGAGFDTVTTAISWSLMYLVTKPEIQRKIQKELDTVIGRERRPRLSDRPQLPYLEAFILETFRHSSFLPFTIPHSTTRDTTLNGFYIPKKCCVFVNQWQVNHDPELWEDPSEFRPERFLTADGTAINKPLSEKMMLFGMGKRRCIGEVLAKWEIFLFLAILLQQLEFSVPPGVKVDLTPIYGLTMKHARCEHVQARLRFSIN

In the case of `COc1ccccc1NC(=O)NCCCCc1ccccc1`, the 50% effective concentration (EC50) (in assay [1]; on Streptokinase A; in the assay on Streptococcus) was > 150 µM (not active) in each case.
Consider `CCOc1ccccc1CN1CCN(Cc2[nH]c3ccccc3c2C)CC1CCO` (centres undefined), for which the results for the concentration for a half-maximal effect (EC50) in assay [2] and in assay [3] were 0.204 µM (active) and > 60 µM (not active), respectively.
Consider `O=c1[nH]c2cc3c(cc2cc1CN(CCc1ccccc1)Cc1nnnn1CC1CCCO1)OCO3` (centres undefined), for which the 50% effective concentration (EC50) at Streptokinase A was > 150 µM (not active).
For the compound `Cc1ccc2nc(N(CCCN(C)C)C(=O)c3ccc(Br)s3)sc2c1`, the 50% effective concentration (EC50) was 0.102 µM (active) in assay [2] and > 60 µM (not active) in assay [3].
With `O=c1n(-c2ccc(Br)cc2)cnn1-c1ncccc1[N+](=O)[O-]`, the EC50 in assay [4] was 2.9 µM (active); in the assay on H4 it was 17.3 µM (active).
On to `CCC[C@]12CN3C[C@](CCC)(CN(C1)C3c1ccccn1)C2=O` (some centres undefined), for which the results for the concentration giving a half-maximal response (EC50) (in assay [1]; with Streptococcus) were 43.8 µM (active) and > 150 µM (not active), respectively.
As for `O=C(Nc1ccccc1)Nc1ccc(-n2ccc(C(F)(F)F)n2)cc1`, the results for the EC50 (in assay [4]; in the assay on H4) were 0.648 µM (active) and > 120 µM (not active), respectively.
For `COc1cccc(-c2nnc(NC(=O)c3ccc(S(=O)(=O)N4CC(C)OC(C)C4)cc3)o2)c1` (centres undefined), the EC50 in assay [1] is 1.3 µM (active); in the assay with Streptococcus it was 2.15 µM (active).
Turning to `CCSc1nnc(NC(=O)COc2ccc3ccccc3c2)s1`, at Cytochrome P450 1A2, the AC50 is 10 µM (inconclusive).
Take `N#CC1=C(N)OC2=C(C(=O)CC(c3ccccc3)C2)C1c1cccnc1` (centres undefined): the concentration giving a half-maximal response (EC50) in assay [2] is 0.111 µM (active); in assay [3], > 30 µM (not active).
With `CCn1c(SCC(=O)N/N=C/C=C\c2ccccc2[N+](=O)[O-])nnc1-c1ccccc1`, at Cytochrome P450 1A2, the AC50 is 28.2 µM (inconclusive).
`Cc1cc(C)cc(NC(S)=NCCSc2ccc(Cl)cc2)c1`: the results for the EC50 (in assay [1]; on Streptokinase A; in the assay on Streptococcus) were 11.8 µM (active), 15.9 µM (active) and > 150 µM (not active), respectively.
The like results for `O=C(COc1ccccc1)Nc1cccc(-c2nc3ccccc3[nH]2)c1` were, in that order, 22.7 µM (active), > 150 µM (not active) and > 150 µM (not active).
On to `CN1CCc2c(sc(NC(=O)c3cc4cc([N+](=O)[O-])ccc4s3)c2C(N)=O)C1`, for which the EC50 in assay [2] was 1.73 µM (active); in assay [3], 14.3 µM (active).
As to `COc1ccccc1CN1CC[C@@]2(CCCN(C(=O)c3cc(C(F)(F)F)cc(C(F)(F)F)c3)C2)C1`, the AC50 on Cytochrome P450 1A2 is 15.8 µM (inconclusive).
On the same count and under the same terms, the figure for `OCCCNc1[nH]cnc2nncc1-2` is 6.31 µM (inconclusive).
Consider `CCOC(=O)N1CCN(c2cc(N3CCN(CC)CC3)c(F)cc2[N+](=O)[O-])CC1C` (centres undefined), for which the half-maximal effective concentration (EC50) in assay [2] was 0.184 µM (active); in assay [3] it was > 60 µM (inconclusive).
The like results for `O=[N+]([O-])c1ccc(N2CCN(S(=O)(=O)c3ccc(Cl)cc3)CC2)cc1NCc1cccnc1` were, in that order, 1.38 µM (active) and 15.4 µM (active).
On to `O=S(=O)(O)c1cc(/N=N\c2cccc3ccccc23)c(O)c2ncccc12`, for which the AC50 on Cytochrome P450 1A2 is 0.631 µM (inconclusive).
As for `CCSc1nc2nc(C)cc(C)n2n1`, on Cytochrome P450 1A2, the concentration at half-maximal activity (AC50) was 12.6 µM (inconclusive).
With `Cc1ccc(C(=O)N2CCCC(CCC(=O)NCc3ccccc3F)C2)cn1` (centres undefined), the concentration giving a half-maximal response (EC50) (in assay [1]; on Streptokinase A; in the assay on Streptococcus) was > 150 µM (not active) each time.
Regarding `CC(=O)c1c(C)[nH]c(C(=O)Nc2nccs2)c1C`, the concentration giving a half-maximal response (EC50) (in assay [4]; in the assay with H4) was > 120 µM (not active) in each case.
`CN(C)Cc1nc2ccccc2c(=O)n1Cc1nc(-c2cc3ccccc3o2)cs1`: the half-maximal effective concentration (EC50) was 2.57 µM (active) in assay [2]; > 30 µM (not active) in assay [3]; 10.4 µM (active) in assay [1]; 104 µM (active) on Streptokinase A; > 150 µM (not active) in the assay with Streptococcus.
As to `OC(COCC(F)(F)C(F)(F)C(F)(F)C(F)F)Cn1c2ccc(Cl)cc2c2cc(Cl)ccc21` (centres undefined), the figures for the half-maximal effective concentration (EC50) (in assay [1]; with Streptococcus) were 2.2 µM (active) and 2.62 µM (active), respectively.
With `CCCCC(C=O)NC(=O)C(CC(C)C)NC(=O)OCc1ccccc1` (centres undefined), the AC50 on Cytochrome P450 1A2 is 31.6 µM (inconclusive).
As to `Nc1ccc(-c2ccc(N)cc2C(F)(F)F)c(C(F)(F)F)c1`, the half-maximal effective concentration (EC50) in assay [1] is 31 µM (active); at Streptokinase A it was 76.8 µM (active); with Streptococcus, > 150 µM (not active).
As to `CCOC(=O)c1ccc(NC(=S)N(Cc2cccnc2)Cc2ccco2)cc1`, the EC50 in assay [2] was 0.631 µM (active); in assay [3] it was > 60 µM (not active).
The corresponding values for `CC1=C/C(=N\NC(=S)NCc2ccccc2)CC1` are 2.88 µM (active) and > 60 µM (not active).
For `Oc1nc2cc3c(cc2cc1CN(CCc1ccccc1)Cc1nnnn1CC1CCCO1)OCO3` (centres undefined), the EC50 (in assay [1]; in the assay on Streptococcus) was > 150 µM (not active) throughout.
On to `O=C(c1ccncc1)N1CCC2(CCCN(c3cccc(-c4ccccc4)c3)C2)CC1`, for which the AC50 at Cytochrome P450 1A2 was 12.6 µM (inconclusive).
As for `COc1ccc(OCC(=O)Nc2ccc(Cl)cc2C(=O)c2ccccc2)cc1`, the concentration at half-maximal activity (AC50) on Cytochrome P450 1A2 is 3.55 µM (inconclusive).
With `Cc1c([N+](=O)[O-])nnn1-c1cc(Cl)cc(Cl)c1`, the concentration for a half-maximal effect (EC50) is 1.86 µM (active) in assay [2] and > 30 µM (not active) in assay [3].
Regarding `COc1ccc(C2c3ccsc3CCN2C(=O)C(C)(C)C)cc1` (centres undefined), the EC50 (in assay [1]; at Streptokinase A; in the assay with Streptococcus) was > 150 µM (not active) throughout.
For the compound `CN(C)CCCN1c2ccccc2C(C)(C)c2ccccc21` [DIMETACRINE], the AC50 on Cytochrome P450 1A2 is 5.01 µM (inconclusive).
As to `O=C(CC(NS(=O)(=O)c1ccc(Cl)cc1)c1ccco1)NCc1ccco1` (centres undefined), at Cytochrome P450 1A2, the AC50 is 25.1 µM (inconclusive).
For `Cc1ccc(-n2c(SCC(=O)c3c(N)n(C)c(=O)n(C)c3=O)nc3sc4c(c3c2=O)CCCC4)c(C)c1`, the 50% effective concentration (EC50) was 2.1 µM (active) in assay [2] and 50.5 µM (active) in assay [3].
The corresponding values for `COc1cc(/C=C(/C#N)c2ccc(C)cc2)ccc1Oc1ccc([N+](=O)[O-])cn1` are 1.54 µM (active) and > 60 µM (not active).
Regarding `O=C(Nc1cccc(NC(=O)c2cccnc2)c1)c1ccccc1`, the EC50 (in assay [1]; at Streptokinase A; in the assay on Streptococcus) was > 150 µM (not active) each time.
For `CC(C)(C)c1ccc(C(=O)NCc2nnc(SCC(=O)NC3CCCC3)o2)cc1`, the concentration giving a half-maximal response (EC50) is > 150 µM (not active) in assay [1], > 150 µM (inconclusive) at Streptokinase A and > 150 µM (not active) in the assay with Streptococcus.
For `Cc1c(Cl)cnn1CC(=O)NC1C(=O)N2C(C(=O)O)=C(CSc3nnnn3C)CSC12` (centres undefined), the EC50 was 0.1 µM (active) in assay [1] and 0.283 µM (active) with Streptococcus.
On to `Cc1cc(C)c(-c2csc(NC(=O)COC(=O)c3ccc4c(c3)OCO4)n2)c(C)c1`, for which the EC50 in assay [2] was 4.69 µM (active); in assay [3] it was > 60 µM (not active).
Consider `c1ccc(N2CCN(c3nc4cc5c(cc4s3)OCCO5)CC2)cc1`, for which the EC50 with H4 is 46 µM (inconclusive).
As to `COc1ccc(Nc2nc(NC(C)(C)C)nc(N3CCOCC3)n2)c(OC)c1`, the EC50 in assay [2] is 1.59 µM (active); in assay [3] it was > 60 µM (not active).
For the compound `Cc1cc2occ(CC(=O)NC3=NCCS3)c2cc1C(C)C`, the figures for the concentration for a half-maximal effect (EC50) (in assay [1]; at Streptokinase A; with Streptococcus) were 71.7 µM (active), > 150 µM (not active) and > 150 µM (not active), respectively.
In the case of `O=C(c1cc(COc2cccc3cnccc23)on1)N1CCC(c2ccccc2Cl)C1` (centres undefined), the EC50 was 1.57 µM (active) in assay [2] and > 60 µM (not active) in assay [3].

For orientation: EC50 means the concentration needed to bring the measured effect to its halfway point. By AC50 is commonly meant the midpoint of the concentration-response curve, whichever way the signal moves.
